Assay: gradient 5% acetonitrile 3 min, to 50% in 2 min, to 85% in 15 min, held 3 min, 100 µL/min
Conditions: column: Zorbax Extend-C18 2.1 x 50 mm; eluents: water / acetonitrile, 0.1% formic acid
Summary of the method: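 Retention times of pure standards were taken from adduct peaks that were selected by computer and manually inspected. Over 3 months, mixtures of ~100 molecules were run by HPLC–quadrupole time-of-flight mass spectrometry in positive and negative ionization mode. The Zorbax Extend-C18 column (2.1 × 50 mm, 1.8 μm) ran at 100 μL/min in water and acetonitrile, each containing 0.1% formic acid, with 40 μL dead volume and 900 μL dwell volume.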

| RP-LC retention time | Compound |
| --- | --- |
| 1190 s | CC1=C(C(=O)Nc2ccc(Cl)cc2C(=O)NC(C)c2ccccc2)SCCO1 (configuration not stated) |
| 570 s | CN1CCN(CCNC(=O)Cn2c3ccccc3c3cnn(C)c(=O)c32)CC1 |
| 664 s | CNC(=O)C1CCCN(c2nc3ncn(CC(=O)NCc4ccccc4Cl)c(=O)c3s2)C1 (configuration not stated) |
| 824 s | COCCN1C(=O)c2cc(-c3ccc(OC)c(OC)c3)nn2CC1(C)C(=O)NC1CCCCC1 (configuration not stated) |
| 708 s | C=C(C)Cn1c(C2CC(=O)N(c3ccccc3Br)C2)nc2ccccc21 (configuration not stated) |
| 755 s | CSc1cccc(NC(=O)Cn2cnc3nc4c(cc3c2=O)CCCC4)c1 |
| 592 s | O=C(CN1CCN(C(=O)Nc2ccc(Cl)cc2)CC1=O)N1CCN(c2ccccn2)CC1 |
| 588 s | CCSc1nnc(NC(=O)c2csc(Nc3cccnc3)n2)s1 |
| 819 s | CSc1ccc(NC(=O)C2CCCN(c3cnc4nc(C)c(C)nc4c3)C2)cc1 (configuration not stated) |
| 689 s | O=C(NCCN1CCOCC1)c1ccc2c(c1)CCCN2S(=O)(=O)c1ccc(Cl)cc1 |
| 649 s | O=C(Nc1cc(Cl)ccc1F)C1CCCN(c2nnc3ccccn23)C1 (configuration not stated) |
| 726 s | CC1CCC(NC(=O)c2ccc(Cn3cncn3)cc2)CC1 (configuration not stated) |
| 982 s | COCCNS(=O)(=O)c1cc(-c2cc(C(F)(F)F)on2)sc1C |
| 1220 s | Cc1ccc(C2Cn3nnc(-c4nc(-c5ccsc5)no4)c3CO2)c(C)c1 (configuration not stated) |
| 730 s | Cc1cc(NS(=O)(=O)c2cc(-c3[nH]ncc3C(=O)N3CCCC3)oc2C)ccc1F |
| 741 s | Cc1ccc(CNC(=O)c2ccccc2CN2C(=O)C3CCCN3C(=O)c3ccccc32)o1 (configuration not stated) |
| 773 s | O=S(=O)(NCc1nnnn1-c1ccc(Cl)cc1)c1ccc2c(c1)OCCO2 |
| 663 s | Cn1cnc(S(=O)(=O)N2CCC(C(=O)Nc3ccc4c(c3)OCCO4)CC2)c1 |
| 662 s | CC(=O)N1CCc2cc(-c3ccc(C(=O)N4CCN(C(=O)c5ccco5)CC4)cc3)ccc21 |

| RP-LC retention time | Compound |
| --- | --- |
| 960 s | Cn1cc(S(=O)(=O)N2CCCCC2)cc1C(=O)Nc1ccccc1 |
| 781 s | CCN1CCn2cc(S(=O)(=O)NCc3cccc(C(F)(F)F)c3)cc2C1=O |
| 1280 s | Cc1nc2cc(-c3noc(/C=C/c4ccco4)n3)ccc2n(C2CCCC2)c1=O |
| 858 s | Cc1ccc(Cl)cc1NC(=O)N1CCC(c2nc(C(=O)N3CCCC3)c(C)o2)CC1 |
| 692 s | Cc1cc(C)n(CCNC(=O)C(=O)Nc2ccc(Cl)cn2)n1 |
| 1100 s | Cc1cc2nn(CC(=O)N(C)c3ccccc3)c(=O)n2c(Nc2ccc(C)c(C)c2)n1 |
| 797 s | Cc1ccc(C)c(N2CCN(C(=O)c3cn4cc(C)ccc4n3)CC2)c1 |
| 614 s | COc1ccc(NC(=O)c2cc3c(s2)CN(C2CCCC2)C3)c(C)c1 |
| 734 s | OC(COc1ccc(F)cc1)CN1CCN(c2cccc(Cl)c2)CC1 (configuration not stated) |
| 838 s | O=C(c1ccc(Br)cc1)N1CC2C3CCC(O3)C2C1 (configuration not stated) |
| 547 s | Cn1cccc(C(=O)NC2CC(=O)N(C3CC3)C2)c1=O (configuration not stated) |
| 779 s | CCN1C(=O)c2c(C(=O)NCCc3ccc(C)cc3)ncn2CC1(C)C(=O)NC1CCCC1 (configuration not stated) |
| 589 s | COc1ccc2[nH]c(=O)c(CCC(=O)N(C)CCc3ccncc3)cc2c1 |
| 655 s | CCCCN(C)C(=O)Cn1c(C(C)NC(=O)c2ccco2)nc2ccccc21 (configuration not stated) |
| 764 s | CCCCNC(=O)CC1CCN(C(=O)c2[nH]c(C)c(C)c2C)CC1 |
| 776 s | Cc1ccc(-c2cc(C(=O)N3CCC(NC(=O)Cc4cccs4)CC3)[nH]n2)c(C)c1 |
| 1220 s | Cc1ccc(Nc2nc(N3CCN(c4ncccn4)CC3)nc3c2C(=O)CCC3)cc1 |
| 627 s | COCC1(O)CCOC2(CCN(Cc3ccc(C)c(C)c3)CC2)C1 (configuration not stated) |

From the METLIN SMRT retention time set (Domingo-Almenara et al. 2019)
